Measurements published in ChEMBL document CHEMBL1201862, “PubChem BioAssay data set” (2004).
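Briefly, cells in 96-well plates were exposed to five compound concentrations for 48 h, and endpoints were estimated by linear interpolation. Abbreviation: GI50, concentration required for 50% inhibition of growth.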 Activity calls are given as the source filed them. No stated cut-off is given here; in the data, active = GI50 up to about 1.1 µM and inactive = higher.

Columns and labels:
Test in all cases: NCI-60 cell line screen, 48 h
ACHN = test system: ACHN
HCT-116 = test system: HCT-116
HL-60 = test system: HL-60
HT-29 = test system: HT-29
Hs-578T = test system: Hs-578T
IGROV-1 = test system: IGROV-1
LOX IMVI = test system: LOX IMVI
MCF7 = test system: MCF7
NCI/ADR-RES = test system: NCI/ADR-RES
OVCAR-3 = test system: OVCAR-3
OVCAR-4 = test system: OVCAR-4
OVCAR-5 = test system: OVCAR-5
OVCAR-8 = test system: OVCAR-8
SK-MEL-2 = test system: SK-MEL-2
SK-OV-3 = test system: SK-OV-3
SNB-19 = test system: SNB-19
SR = test system: SR
T47D = test system: T47D
NCI-H23 = test system: NCI-H23
UACC-62 = test system: UACC-62

Row | Structure (SMILES) | GI50 (ACHN) | GI50 (HCT-116) | GI50 (HL-60) | GI50 (HT-29) | GI50 (Hs-578T) | GI50 (IGROV-1) | GI50 (LOX IMVI) | GI50 (MCF7) | GI50 (NCI/ADR-RES) | GI50 (OVCAR-3) | GI50 (OVCAR-4) | GI50 (OVCAR-5) | GI50 (OVCAR-8) | GI50 (SK-MEL-2) | GI50 (SK-OV-3) | GI50 (SNB-19) | GI50 (SR) | GI50 (T47D) | GI50 (NCI-H23) | GI50 (UACC-62)
1 | O=C1NC(=O)C(c2c[nH]c3ccccc23)=C1c1cnc[nH]1 | > 100 µM (inactive) | 41.8 µM (inactive) | 26.9 µM (inactive) | 66.4 µM (inactive) | 64.3 µM (inactive) | > 100 µM (inactive) | 59 µM (inactive) | 34.5 µM (inactive) | > 100 µM (inactive) | 82 µM (inactive) | > 100 µM (inactive) | > 100 µM (inactive) | > 100 µM (inactive) | 43.4 µM (inactive) | > 100 µM (inactive) | > 100 µM (inactive) | 23.6 µM (inactive) | > 100 µM (inactive) | – | –
2 | O=C(CC(=O)Nc1ccccc1Cl)NNC(c1cc(/N=N/c2ccc(Br)cc2)ccc1O)P(O)O (stereo not given) | 0.813 µM (active) | 0.311 µM (active) | 0.323 µM (active) | > 10 µM (inactive) | > 10 µM (inactive) | 6.9 µM (inactive) | 1.07 µM (active) | 0.791 µM (active) | 1.07 µM (active) | 0.348 µM (active) | 2.34 µM (inactive) | 3.61 µM (inactive) | 0.525 µM (active) | > 10 µM (inactive) | 3.03 µM (inactive) | 4.1 µM (inactive) | 0.766 µM (active) | 2.12 µM (inactive) | 2.53 µM (inactive) | 0.964 µM (active)
3 | COc1cc(I)c2c3c1OC1C34CCN(C)C(C2)C4=CC(I)C1(OC)OC (stereo not given) | 27 µM (inactive) | 23.4 µM (inactive) | 17 µM (inactive) | 26.5 µM (inactive) | 53.2 µM (inactive) | 20.1 µM (inactive) | 19.6 µM (inactive) | 20.7 µM (inactive) | 28.2 µM (inactive) | 19.2 µM (inactive) | 15 µM (inactive) | 24.2 µM (inactive) | 20.1 µM (inactive) | 16.4 µM (inactive) | 24.8 µM (inactive) | 27.4 µM (inactive) | 16.1 µM (inactive) | 14.6 µM (inactive) | 24.5 µM (inactive) | 19.2 µM (inactive)
4 | O=C(O)c1cc2c(cc1CC(Cc1ccc3c(c1)CCC3)C(=O)O)CCC2 (stereo not given) | > 100 µM (inactive) | > 100 µM (inactive) | > 100 µM (inactive) | > 100 µM (inactive) | > 100 µM (inactive) | > 100 µM (inactive) | > 100 µM (inactive) | > 100 µM (inactive) | > 100 µM (inactive) | > 100 µM (inactive) | > 100 µM (inactive) | > 100 µM (inactive) | > 100 µM (inactive) | > 100 µM (inactive) | > 100 µM (inactive) | > 100 µM (inactive) | > 100 µM (inactive) | > 100 µM (inactive) | > 100 µM (inactive) | –
5 | N#CC1C(=O)NC(=O)C(C#N)C1c1ccc(Cl)c(Cl)c1 (stereo not given) | 22.4 µM (inactive) | 13.9 µM (inactive) | 35.4 µM (inactive) | 16.7 µM (inactive) | 23.1 µM (inactive) | 18.1 µM (inactive) | 17.1 µM (inactive) | 34.4 µM (inactive) | 28 µM (inactive) | 24.2 µM (inactive) | 81.8 µM (inactive) | 23.4 µM (inactive) | 37.4 µM (inactive) | 80.2 µM (inactive) | > 100 µM (inactive) | 91.2 µM (inactive) | 18.2 µM (inactive) | 33.3 µM (inactive) | 21.4 µM (inactive) | –
6 | O=P1(N(CCCl)CCCl)Oc2ccc(Cl)cc2C(C(Cl)(Cl)Cl)c2cc(Cl)ccc2O1 (stereo not given) | 15.5 µM (inactive) | 4.55 µM (inactive) | 4.26 µM (inactive) | 5.48 µM (inactive) | 13.6 µM (inactive) | – | 15.2 µM (inactive) | 10.4 µM (inactive) | 14.8 µM (inactive) | 11.4 µM (inactive) | 20.7 µM (inactive) | 32.8 µM (inactive) | 25.5 µM (inactive) | 18.5 µM (inactive) | 22.5 µM (inactive) | – | 3.94 µM (inactive) | 20 µM (inactive) | 12.8 µM (inactive) | 12.6 µM (inactive)
7 | O=C(CCl)N1CCCCC1C1(c2cc3ccccc3[nH]2)OCCO1 (stereo not given) | 5 µM (inactive) | 2.84 µM (inactive) | 0.685 µM (active) | 3.66 µM (inactive) | 3.3 µM (inactive) | 0.198 µM (active) | 0.0349 µM (active) | 2.56 µM (inactive) | 3.05 µM (inactive) | 2.01 µM (inactive) | 1.73 µM (inactive) | 4.17 µM (inactive) | 4.24 µM (inactive) | 7.98 µM (inactive) | 5.78 µM (inactive) | 10.6 µM (inactive) | 0.454 µM (active) | 7.45 µM (inactive) | 2.21 µM (inactive) | 3.14 µM (inactive)
8 | O=c1c(Sc2ncccn2)c(Sc2ncccn2)cnn1CCl | 2.21 µM (inactive) | 1.85 µM (inactive) | 2.04 µM (inactive) | 1.98 µM (inactive) | 14.5 µM (inactive) | 1.17 µM (inactive) | 2.01 µM (inactive) | 2.88 µM (inactive) | 4.97 µM (inactive) | 2.02 µM (inactive) | 2.15 µM (inactive) | 7.21 µM (inactive) | 2.08 µM (inactive) | 2.22 µM (inactive) | 11.1 µM (inactive) | 17 µM (inactive) | 2.79 µM (inactive) | 3.23 µM (inactive) | 4.67 µM (inactive) | 5.75 µM (inactive)
9 | CC(=O)C1(O)Cc2c(O)c3c(c(O)c2C(OC2CC(N)C(O)C(C)O2)C1)C(=O)c1ccccc1C3=O (stereo not given) | 0.00438 µM (active) | 0.0279 µM (active) | 0.00206 µM (active) | 0.0252 µM (active) | 0.254 µM (active) | 0.0243 µM (active) | 0.01 µM (active) | 0.00458 µM (active) | 0.297 µM (active) | 0.178 µM (active) | 0.327 µM (active) | 0.141 µM (active) | 0.0327 µM (active) | 0.415 µM (active) | 0.161 µM (active) | 0.0373 µM (active) | 0.0292 µM (active) | 0.0497 µM (active) | 0.0227 µM (active) | 0.0303 µM (active)
10 | C=CC(C)(C)c1cc([C@@H]2COc3cc(O)ccc3C2=O)c(O)c(O)c1OC | 17.6 µM (inactive) | 16.9 µM (inactive) | 22.7 µM (inactive) | 21.9 µM (inactive) | 39 µM (inactive) | – | 16.2 µM (inactive) | 17.4 µM (inactive) | 24.8 µM (inactive) | 15.8 µM (inactive) | 16.9 µM (inactive) | 31.4 µM (inactive) | 16.4 µM (inactive) | 22.5 µM (inactive) | 29.1 µM (inactive) | 23.5 µM (inactive) | 22.3 µM (inactive) | 25.4 µM (inactive) | 17.1 µM (inactive) | 18.1 µM (inactive)
11 | OC(C/C=N/N=C/CC(O)(C(F)(F)Cl)C(F)(F)Cl)(C(F)(F)Cl)C(F)(F)Cl | > 10 µM (inactive) | > 10 µM (inactive) | > 10 µM (inactive) | > 10 µM (inactive) | > 10 µM (inactive) | > 10 µM (inactive) | > 10 µM (inactive) | > 10 µM (inactive) | > 10 µM (inactive) | > 10 µM (inactive) | > 10 µM (inactive) | – | > 10 µM (inactive) | > 10 µM (inactive) | > 10 µM (inactive) | > 10 µM (inactive) | > 10 µM (inactive) | > 10 µM (inactive) | > 10 µM (inactive) | > 10 µM (inactive)
12 | CC(=O)OC1CC2C(=O)CC1(C)C2(C)C (stereo not given) | > 100 µM (inactive) | > 100 µM (inactive) | > 100 µM (inactive) | > 100 µM (inactive) | > 100 µM (inactive) | – | > 100 µM (inactive) | > 100 µM (inactive) | > 100 µM (inactive) | > 100 µM (inactive) | > 100 µM (inactive) | > 100 µM (inactive) | > 100 µM (inactive) | > 100 µM (inactive) | > 100 µM (inactive) | > 100 µM (inactive) | > 100 µM (inactive) | > 100 µM (inactive) | > 100 µM (inactive) | > 100 µM (inactive)
13 | CC(=O)OC1/C(=C/c2ccc([N+](=O)[O-])cc2)C[C@H]2[C@@H]3CC=C4C[C@@H](OC(C)=O)CC[C@]4(C)[C@H]3CC[C@]12C (stereo not given in full) | 99.8 µM (inactive) | > 100 µM (inactive) | 2.61 µM (inactive) | > 100 µM (inactive) | 74.5 µM (inactive) | > 100 µM (inactive) | > 100 µM (inactive) | > 100 µM (inactive) | > 43 µM (inactive) | > 100 µM (inactive) | > 96.4 µM (inactive) | > 100 µM (inactive) | > 100 µM (inactive) | > 61.5 µM (inactive) | 41.4 µM (inactive) | > 72.4 µM (inactive) | 5.13 µM (inactive) | > 100 µM (inactive) | > 100 µM (inactive) | > 100 µM (inactive)
14 | FC(F)(F)c1ccc2c(c1)nc(Cc1ccc(Cl)c(Cl)c1)n2CC1CCCN2CCCCC12 (stereo not given) | 22.8 µM (inactive) | 14.8 µM (inactive) | 17.5 µM (inactive) | 11.2 µM (inactive) | 10.9 µM (inactive) | 21.2 µM (inactive) | 16.3 µM (inactive) | 17.5 µM (inactive) | 25.8 µM (inactive) | 20 µM (inactive) | 74.5 µM (inactive) | 17.4 µM (inactive) | 35.8 µM (inactive) | 35.5 µM (inactive) | 31.3 µM (inactive) | 18.9 µM (inactive) | 23.2 µM (inactive) | 29 µM (inactive) | – | 15.9 µM (inactive)
